Patent US20240215582A1, “METHODS OF CONTROLLING PLANT PATHOGENS” (Valent BioSciences LLC, priority 2022, published 2024)
Where two headings read alike, the source gives them in different places. Marks after values point to notes of the source that are not given here.

Legend:
Magnaporthe oryzae = assay type: in vivo
[1] = tested on: Pseudoperonospora cubensis; assay: Foliar application, inoculated plants, disease severity; details: for Disease severity P. cubensis Oct. 20, 2020: carrier control severity 70; for Disease severity P. cubensis Oct. 27, 2020: carrier control severity 79; for Disease severity P. cubensis Jul. 28, 2020: carrier control severity 67; for Disease severity P. cubensis Jul. 21, 2020: carrier control severity 100
Procedure: (§1) Biological efficacy assays utilizing cervinomycins were conducted on Pseudoperonospora cubensis and Botrytis cinerea. […] Once plants had dried they were inoculated with the pathogen, then were stored in a controlled climate chamber under high humidity for 4-6 days. At the end of the experiment disease severity was determined based on the percentage of plant tissue that was visually symptomatic.

Fusarium graminearum = assay type: cell-based
Phakopsora pachyrhizi = assay: Host plant efficacy assay (soybean); assay type: in vivo; details: in vivo
Zymoseptoria tritici = assay: Host plant efficacy assay (wheat); assay type: in vivo; details: in vivo
Phytophthora infestans = assay type: in vivo
Botrytis cinerea = assay: Foliar application, inoculated plants, disease severity; details: for Disease severity B. cinerea: carrier control severity 63.3; for percent control B. cinerea: vs carrier control
Procedure: as §1

Erysiphe diffusa = assay: Host plant efficacy assay (soybean); assay type: in vivo; details: in vivo
Plasmospora viticola = assay: Efficacy on grape plants infected with Plasmospora viticola; details: for % control Plasmospora viticola 1DAI: 1 day after infection; for % control Plasmospora viticola 1DAI / % control Plasmospora viticola 1DB1 / % control Plasmospora viticola 7DBI: grape plants; for % control Plasmospora viticola 1DB1: 1 day before infection; for % control Plasmospora viticola 7DBI: 7 days before infection
Source text: Treatments occurred at either 1 day before infection (“1 DBI”), 7 days before infection (“7 DBI”) or 1 day after infection (“1 DAI”).

Pyrenophora teres = assay: Host plant efficacy assay (barley); assay type: in vivo; details: in vivo
Cochliobolus miyabeanus = assay: In vitro growth on cervinomycin-amended growth media; assay type: cell-based
Podosphaera xanthii = assay: Host plant efficacy assay (cucumber); assay type: in vivo; details: in vivo
[2] = 1 ppm foliar, vs carrier control
[3] = 3 ppm foliar, vs carrier control
[4] = 6 ppm foliar, vs carrier control
[5] = 12 ppm foliar, vs carrier control
[6] = 25 ppm foliar, vs carrier control
[7] = 30 ppm foliar, vs carrier control
[8] = 50 ppm foliar, vs carrier control

Question: With COc1cc2oc3c(O)c4ccc5cc6c(c(O)c5c4c(O)c3c(=O)c2cc1OC)C(=O)N1CCOC1(C)C6 (centres unmarked) [Cervinomycin A1, cervinomycin A1] as the compound, how does the “% control Magnaporthe oryzae Rice 1DBI” value (Magnaporthe oryzae; 11.3 ppm) read?
Answer: 0 (0 (about 0%))

Question: What about the “% control Magnaporthe oryzae Rice 1DBI” value (Magnaporthe oryzae; 45 ppm) of the same compound?
Answer: 0 (0 (about 0%))

Question: What about the “% control Magnaporthe oryzae Rice 1DBI” value (Magnaporthe oryzae; 180 ppm) of the same compound?
Answer: 0 (0 (about 0%))

Question: What about the “Disease severity P. cubensis Oct. 20, 2020” value ([1]; 1 ppm foliar) of the same compound?
Answer: 13%

Question: What about the “Disease severity P. cubensis Oct. 27, 2020” value ([1]; 1 ppm foliar) of the same compound?
Answer: 2%

Question: And the “percent control P. cubensis Oct. 20, 2020” value [1, 2]?
Answer: (81%)*

Question: And the “percent control P. cubensis Oct. 27, 2020” value [1, 2]?
Answer: 98%

Question: What about the “Disease severity P. cubensis Jul. 28, 2020” value ([1]; 3 ppm foliar) of the same compound?
Answer: 47%

Question: What about the “Disease severity P. cubensis Oct. 20, 2020” value ([1]; 3 ppm foliar) of the same compound?
Answer: 3%

Question: What about the “Disease severity P. cubensis Oct. 27, 2020” value ([1]; 3 ppm foliar) of the same compound?
Answer: 1%

Question: What about the “percent control P. cubensis Jul. 28, 2020” value [1, 3] of the same compound?
Answer: 30%

Question: What about the “percent control P. cubensis Oct. 20, 2020” value [1, 3] of the same compound?
Answer: (96%)

Question: What about the “percent control P. cubensis Oct. 27, 2020” value [1, 3] of the same compound?
Answer: 99%

Question: And the “Disease severity P. cubensis Oct. 20, 2020” value ([1]; 6 ppm foliar)?
Answer: 2%

Question: And the “Disease severity P. cubensis Oct. 27, 2020” value ([1]; 6 ppm foliar)?
Answer: 1%

Question: What about the “percent control P. cubensis Oct. 20, 2020” value [1, 4] of the same compound?
Answer: (97%)

Question: What about the “percent control P. cubensis Oct. 27, 2020” value [1, 4] of the same compound?
Answer: 99%

Question: And the “Disease severity P. cubensis Jul. 28, 2020” value ([1]; 7.5 ppm foliar)?
Answer: 43%

Question: And the “percent control P. cubensis Jul. 28, 2020” value ([1]; 7.5 ppm foliar, vs carrier control)?
Answer: 36%

Question: And the “Disease severity P. cubensis Oct. 20, 2020” value ([1]; 12 ppm foliar)?
Answer: 1%

Question: And the “Disease severity P. cubensis Oct. 27, 2020” value ([1]; 12 ppm foliar)?
Answer: 2%

Question: And the “percent control P. cubensis Oct. 20, 2020” value [1, 5]?
Answer: (99%)

Question: And the “percent control P. cubensis Oct. 27, 2020” value [1, 5]?
Answer: 98%

Question: What about the “Disease severity P. cubensis Jul. 28, 2020” value ([1]; 15 ppm foliar) of the same compound?
Answer: 16%

Question: And the “percent control P. cubensis Jul. 28, 2020” value ([1]; 15 ppm foliar, vs carrier control)?
Answer: 76%

Question: What about the “Disease severity P. cubensis Oct. 20, 2020” value ([1]; 25 ppm foliar) of the same compound?
Answer: 1%

Question: And the “Disease severity P. cubensis Oct. 27, 2020” value ([1]; 25 ppm foliar)?
Answer: 1%

Question: And the “percent control P. cubensis Oct. 20, 2020” value [1, 6]?
Answer: (99%)

Question: What about the “percent control P. cubensis Oct. 27, 2020” value [1, 6] of the same compound?
Answer: 99%

Question: And the “Disease severity P. cubensis Jul. 28, 2020” value ([1]; 30 ppm foliar)?
Answer: 7%

Question: And the “Disease severity P. cubensis Jul. 14, 2020” value ([1]; 30 ppm foliar, carrier control severity 98)?
Answer: 25%

Question: What about the “Disease severity P. cubensis Jul. 21, 2020” value ([1]; 30 ppm foliar) of the same compound?
Answer: 3%

Question: And the “percent control P. cubensis Jul. 14, 2020” value [1, 7]?
Answer: 74%

Question: And the “percent control P. cubensis Jul. 21, 2020” value [1, 7]?
Answer: 97%

Question: What about the “percent control P. cubensis Jul. 28, 2020” value [1, 7] of the same compound?
Answer: 89%

Question: And the “Disease severity P. cubensis Oct. 20, 2020” value ([1]; 50 ppm foliar)?
Answer: 0.4%

Question: And the “Disease severity P. cubensis Oct. 27, 2020” value ([1]; 50 ppm foliar)?
Answer: 1%

Question: And the “percent control P. cubensis Oct. 20, 2020” value [1, 8]?
Answer: (99%)

Question: What about the “percent control P. cubensis Oct. 27, 2020” value [1, 8] of the same compound?
Answer: 99%

Question: What about the “Disease severity P. cubensis Jul. 21, 2020” value ([1]; 192 ppm foliar) of the same compound?
Answer: 3%

Question: What about the “percent control P. cubensis Jul. 21, 2020” value ([1]; 192 ppm foliar, vs carrier control) of the same compound?
Answer: 97%

Question: What about the “control of Pseudoperonospora cubensis (summary of Table 3)” value ([1]; foliar application) of the same compound?
Answer: significant control

Question: What about the “% Control Fusarium graminearum” value (Fusarium graminearum; 0.004 ppm in growth media) of the same compound?
Answer: 4%

Question: And the “% Control Fusarium graminearum” value (Fusarium graminearum; 0.016 ppm in growth media)?
Answer: 6%

Question: And the “% Control Fusarium graminearum” value (Fusarium graminearum; 0.063 ppm in growth media)?
Answer: 7%

Question: What about the “% Control Fusarium graminearum” value (Fusarium graminearum; 0.25 ppm in growth media) of the same compound?
Answer: 20%

Question: And the “% Control Fusarium graminearum” value (Fusarium graminearum; 1 ppm in growth media)?
Answer: 31%

Question: And the “% control Phakopsora pachyrhizi Soybean 3DAI” value (Phakopsora pachyrhizi)?
Answer: 0 (key: 5 (about 100%); 4 (about 90%); 3 (about 70%); 2 (about 50%); 1 (about 25%); 0 (about 0%))

Question: And the “% control Zymoseptoria tritici Wheat 3DAI” value (Zymoseptoria tritici)?
Answer: 0 (key: 5 (about 100%); 4 (about 90%); 3 (about 70%); 2 (about 50%); 1 (about 25%); 0 (about 0%))

Question: What about the “% control Zymoseptoria tritici Wheat 4DBI” value (Zymoseptoria tritici) of the same compound?
Answer: 0 (key: 5 (about 100%); 4 (about 90%); 3 (about 70%); 2 (about 50%); 1 (about 25%); 0 (about 0%))

Question: What about the “% control Phytophthora infestans Tomato 1DBI” value (Phytophthora infestans; 11.3 ppm) of the same compound?
Answer: 0 (0 (about 0%))

Question: What about the “% control Phytophthora infestans Tomato 1DBI” value (Phytophthora infestans; 45 ppm) of the same compound?
Answer: 0 (0 (about 0%))

Question: And the “% control Phytophthora infestans Tomato 1DBI” value (Phytophthora infestans; 180 ppm)?
Answer: 3 (3 (about 70%))

Question: And the “Disease severity B. cinerea” value (Botrytis cinerea; 1 ppm foliar)?
Answer: 31%

Question: What about the “percent control B. cinerea” value (Botrytis cinerea; 1 ppm foliar) of the same compound?
Answer: (51%)

Question: What about the “Disease severity B. cinerea” value (Botrytis cinerea; 3 ppm foliar) of the same compound?
Answer: 17%

Question: What about the “percent control B. cinerea” value (Botrytis cinerea; 3 ppm foliar) of the same compound?
Answer: (74%)

Question: What about the “Disease severity B. cinerea” value (Botrytis cinerea; 6 ppm foliar) of the same compound?
Answer: 9%

Question: What about the “percent control B. cinerea” value (Botrytis cinerea; 6 ppm foliar) of the same compound?
Answer: (85%)

Question: And the “Disease severity B. cinerea” value (Botrytis cinerea; 12 ppm foliar)?
Answer: 2%

Question: And the “percent control B. cinerea” value (Botrytis cinerea; 12 ppm foliar)?
Answer: (96%)

Question: And the “Disease severity B. cinerea” value (Botrytis cinerea; 25 ppm foliar)?
Answer: 2%

Question: And the “percent control B. cinerea” value (Botrytis cinerea; 25 ppm foliar)?
Answer: (96%)

Question: And the “Disease severity B. cinerea” value (Botrytis cinerea; 50 ppm foliar)?
Answer: 1%

Question: What about the “percent control B. cinerea” value (Botrytis cinerea; 50 ppm foliar) of the same compound?
Answer: (98%)

Question: And the “control of Botrytis cinerea (summary of Table 3)” value (Botrytis cinerea; foliar application)?
Answer: significant control

Question: And the “% control Erysiphe diffusa Soybean 2DAI” value (Erysiphe diffusa)?
Answer: 0 (key: 5 (about 100%); 4 (about 90%); 3 (about 70%); 2 (about 50%); 1 (about 25%); 0 (about 0%))

Question: What about the “control of P. viticiola (summary of Table 1)” value (Plasmospora viticola; 13-800 ppm) of the same compound?
Answer: significant control

Question: And the “% control Plasmospora viticola 1DAI” value (Plasmospora viticola; 13 ppm)?
Answer: 0%

Question: What about the “% control Plasmospora viticola 1DB1” value (Plasmospora viticola; 13 ppm) of the same compound?
Answer: 100%

Question: And the “% control Plasmospora viticola 7DBI” value (Plasmospora viticola; 13 ppm)?
Answer: 80%

Question: And the “% control Plasmospora viticola 1DAI” value (Plasmospora viticola; 50 ppm)?
Answer: 0%

Question: What about the “% control Plasmospora viticola 1DB1” value (Plasmospora viticola; 50 ppm) of the same compound?
Answer: 100%

Question: What about the “% control Plasmospora viticola 1DAI” value (Plasmospora viticola; 200 ppm) of the same compound?
Answer: 0%

Question: And the “% control Plasmospora viticola 1DB1” value (Plasmospora viticola; 200 ppm)?
Answer: 100%

Question: What about the “% control Plasmospora viticola 7DBI” value (Plasmospora viticola; 200 ppm) of the same compound?
Answer: 100%

Question: And the “% control Plasmospora viticola 1DAI” value (Plasmospora viticola; 800 ppm)?
Answer: 7%

Question: And the “% control Plasmospora viticola 1DB1” value (Plasmospora viticola; 800 ppm)?
Answer: 100%

Question: What about the “% control Plasmospora viticola 7DBI” value (Plasmospora viticola; 800 ppm) of the same compound?
Answer: 100%

Question: And the “% control Pyrenophora teres Barley 1DBI” value (Pyrenophora teres)?
Answer: 0 (key: 5 (about 100%); 4 (about 90%); 3 (about 70%); 2 (about 50%); 1 (about 25%); 0 (about 0%))

Question: What about the “% Control Cochliobolus miyabeanus” value (Cochliobolus miyabeanus; 0.004 ppm in growth media) of the same compound?
Answer: 1%

Question: What about the “% Control Cochliobolus miyabeanus” value (Cochliobolus miyabeanus; 0.016 ppm in growth media) of the same compound?
Answer: 2%

Question: What about the “% Control Cochliobolus miyabeanus” value (Cochliobolus miyabeanus; 0.063 ppm in growth media) of the same compound?
Answer: 29%

Question: What about the “% Control Cochliobolus miyabeanus” value (Cochliobolus miyabeanus; 0.25 ppm in growth media) of the same compound?
Answer: 59%

Question: And the “% Control Cochliobolus miyabeanus” value (Cochliobolus miyabeanus; 1 ppm in growth media)?
Answer: 74%

Question: What about the “% control Podosphaera xanthii Cucumber 1DBI” value (Podosphaera xanthii) of the same compound?
Answer: 0 (key: 5 (about 100%); 4 (about 90%); 3 (about 70%); 2 (about 50%); 1 (about 25%); 0 (about 0%))
